In patent US20050054555A1, “Kahalalide compounds for use in cancer therapy” (priority 2001, published 2005):
“Also recorded” adds a separate entry of the source.

Experiments:
[1] = Phase I trial KHF-A-001-00: plasma pharmacokinetics (LC-MS/MS); type: in vivo, human
Description: Bioanalysis of KF was performed by LC-MS/MS.

[2] = test system: human patients afflicted with cancer; test: Clinical programme (both phase I trials): toxicity summary; type: in vivo
Description: Clinical trials were carried out based on the following protocols:
(§1) The rate of subject entry and escalation to the next dose level will depend upon assessment of the safety profile of patients entered at each dose level. Toxicity will be evaluated and graded according to the Common Toxicity Criteria, version 2.0.

female mice = conditions: single bolus iv injection; cited from earlier work
[3] = test system: patients with solid tumours; test: Phase I trial KHF-A-002-01: safety of Kahalalide F weekly infusion over 1 hour; type: in vivo, human
Source text: as §1
In order to minimize the number of patients treated at the subtoxic dose levels, a single patient will be treated per dose level with 100% dose escalation in the absence of any toxicity G2 (excluding alopecia) during their first course of treatment. After the occurrence of grade 2 toxicity (excluding asthenia, alopecia, nausea and vomiting or anemia), the dose level is expanded to three patients with only 50% incremental increase in dosage in advancing to the next dose level. For the occurrence of grade 3 non-hematological toxic effects the dose level should be expanded up to six patients. This second cohort of 3 patients will be included consecutively. If the first or second patient develops dose limiting toxicities no further patients will be treated at this dose level, it will be defined as MTD and the accrual will begin at a lower dose level. If only one DLT occurs at this dose level another 3 patients will be included at the next dose level with an increase of 25% only.
The maximum tolerated dose (MTD) is defined as the dose at which at least 2 out of 3 or more than 3 patients experience DLT. However, it is possible that additional patients may experience DLT due to the timing of patient enrollment into that dose level.
The toxicity will be evaluated and clasified in grades according to the Common Toxicity Criteria (CTC) version NCI 2.0, March 1998.
Dose Limiting Toxicities (DLTs) are Defined as Follows: […]
ANC <500/mm3 for more than 5 days.
ANC <500/mm3 with a temperature of 38'5 or more.
Any other non-hematological grade 3-4 toxicity excluding: nausea, emesis without prophilaxis
G3 transaminases increase >14 days
Hypersensibility reactions

[4] = weekly 1 h infusion, all dose levels
[5] = weekly 1 h infusion, all dose levels, 19 patients evaluated
[6] = weekly 1 h infusion, all dose levels, head prints 20 patients

SMILES: C/C=C1\NC(=O)[C@H](Cc2ccccc2)NC(=O)[C@@H](C(C)C)NC(=O)[C@@H](C(C)CC)NC(=O)[C@H](NC(=O)C(NC(=O)[C@H](CCCN)NC(=O)[C@H]2CCCN2C(=O)[C@H](NC(=O)[C@@H](NC(=O)[C@@H](NC(=O)[C@H](NC(=O)CCCC(C)C)C(C)C)C(C)O)C(C)C)C(C)C)C(C)CC)C(C)OC(=O)[C@H](C(C)C)NC1=O (single isomer, unassigned) [kahalalide F]
- Maximum plasma concentrations ([1]; dose level 320 μg/m2/day): 35 to 50 ng/mL
- clearance ([1]; male, human, plasma, iv infusion over 1 h, 5 consecutive days every 3 weeks, first course, 20-320 μg/m2/day, read-out: Total plasma clearance): 267 mL/min
- half-life ([1]; male, human, plasma, iv infusion over 1 h, 5 consecutive days every 3 weeks, first course, read-out: terminal half-life (converted)): 27.6 min
- relationship between dose and AUC ([1]; whole dose range 20-320 μg/m2/day): linear relationship
- Grade 1-2 neutropenia, share of patients [2]: 10%
- Grade 1 hypokalyemia, share of patients [2]: 20%
- grade 1 hypophosphatemia, share of patients [2]: 10%
- grade 1 renal toxicity, share of patients [2]: about 35%
- grade 2 hypophosphatemia, share of patients [2]: 15%
- grade 3-4 hematologic toxicities [2]: No grade 3-4 toxicities were reported
- maximum tolerated dose (MTD) (female mice): 0.28 mg/kg
- incidence of grade 4 hypertransaminasemia ([3]; 800-1200 mcg/m2/wk): all the patients had grade 4 hypertransaminasemia
- time of onset of grade 4 hypertransaminasemia after the infusion ([3]; 1200 mcg/m2 weekly): 5 h
- Worst toxicity ([3]; Level VI, dose 1000 weekly, 3 patients): Hypersensitivity; also recorded: hypertrans
- Bronchoconstriction observed ([3]; highest dose level (1000 and 1200)): two patients
- reversibility of hypertransaminasemia overall ([3]; patients remained asymptomatic): completely reversible
- reversibility of hypertransaminasemia ([3]; patients treated at 1000 and 1200): not reversible by day 8
- dose at which the DLT (grade 4 hypertransaminasemia non reversible by day 21) was identified ([3]; weekly 1 h infusion): 1200 mcg/m2
- Nonhematologic toxicity, laboratory abnormalities: Alk. phosphatase, Grade 1 [3, 4]: 27.8
- Nonhematologic toxicity, laboratory abnormalities: Alk. phosphatase, Grade 2 [3, 4]: 11.1
- Nonhematologic toxicity, laboratory abnormalities: Alk. phosphatase, Grade 3 [3, 4]: 0
- Nonhematologic toxicity, laboratory abnormalities: Alk. phosphatase, Grade 4 [3, 4]: 0
- Nonhematologic toxicity, laboratory abnormalities: Bilirubin, Grade 1 [3, 4]: 5.6
- Nonhematologic toxicity, laboratory abnormalities: Bilirubin, Grade 2 [3, 4]: 0
- Nonhematologic toxicity, laboratory abnormalities: Bilirubin, Grade 3 [3, 4]: 0
- Nonhematologic toxicity, laboratory abnormalities: Bilirubin, Grade 4 [3, 4]: 0
- Nonhematologic toxicity, laboratory abnormalities: CPK, Grade 1 [3, 4]: 36.8
- Nonhematologic toxicity, laboratory abnormalities: CPK, Grade 2 [3, 4]: 0
- Nonhematologic toxicity, laboratory abnormalities: CPK, Grade 3 [3, 4]: 0
- Nonhematologic toxicity, laboratory abnormalities: CPK, Grade 4 [3, 4]: 0
- Nonhematologic toxicity, laboratory abnormalities: Ca++ hyper, Grade 1 [3, 4]: 84.2
- Nonhematologic toxicity, laboratory abnormalities: Ca++ hyper, Grade 2 [3, 4]: 0
- Nonhematologic toxicity, laboratory abnormalities: Ca++ hyper, Grade 3 [3, 4]: 0
- Nonhematologic toxicity, laboratory abnormalities: Ca++ hyper, Grade 4 [3, 4]: 0
- Nonhematologic toxicity, laboratory abnormalities: Ca++ hypo, Grade 1 [3, 4]: 21.1
- Nonhematologic toxicity, laboratory abnormalities: Ca++ hypo, Grade 2 [3, 4]: 0
- Nonhematologic toxicity, laboratory abnormalities: Ca++ hypo, Grade 3 [3, 4]: 0
- Nonhematologic toxicity, laboratory abnormalities: Ca++ hypo, Grade 4 [3, 4]: 0
- Nonhematologic toxicity, laboratory abnormalities: Creatinine, Grade 1 [3, 4]: 31.6
- Nonhematologic toxicity, laboratory abnormalities: Creatinine, Grade 2 [3, 4]: 5.3
- Nonhematologic toxicity, laboratory abnormalities: Creatinine, Grade 3 [3, 4]: 0
- Nonhematologic toxicity, laboratory abnormalities: Creatinine, Grade 4 [3, 4]: 0
- Nonhematologic toxicity, laboratory abnormalities: GGT, Grade 1 [3, 4]: 16.7
- Nonhematologic toxicity, laboratory abnormalities: GGT, Grade 2 [3, 4]: 11.1
- Nonhematologic toxicity, laboratory abnormalities: GGT, Grade 3 [3, 4]: 5.6
- Nonhematologic toxicity, laboratory abnormalities: GGT, Grade 4 [3, 4]: 11.1
- Nonhematologic toxicity, laboratory abnormalities: GOT, Grade 1 [3, 4]: 38.9
- Nonhematologic toxicity, laboratory abnormalities: GOT, Grade 2 [3, 4]: 0
- Nonhematologic toxicity, laboratory abnormalities: GOT, Grade 3 [3, 4]: 0
- Nonhematologic toxicity, laboratory abnormalities: GOT, Grade 4 [3, 4]: 16.7
- Nonhematologic toxicity, laboratory abnormalities: GPT, Grade 1 [3, 4]: 22.2
- Nonhematologic toxicity, laboratory abnormalities: GPT, Grade 2 [3, 4]: 5.6
- Nonhematologic toxicity, laboratory abnormalities: GPT, Grade 3 [3, 4]: 0
- Nonhematologic toxicity, laboratory abnormalities: GPT, Grade 4 [3, 4]: 16.7
- Nonhematologic toxicity, laboratory abnormalities: K+ hypo, Grade 1 [3, 4]: 5.3
- Nonhematologic toxicity, laboratory abnormalities: K+ hypo, Grade 2 [3, 4]: 0
- Nonhematologic toxicity, laboratory abnormalities: K+ hypo, Grade 3 [3, 4]: 0
- Nonhematologic toxicity, laboratory abnormalities: K+ hypo, Grade 4 [3, 4]: 0
- Nonhematologic toxicity, laboratory abnormalities: Na+ hypo, Grade 1 [3, 4]: 21.1
- Nonhematologic toxicity, laboratory abnormalities: Na+ hypo, Grade 2 [3, 4]: 0
- Nonhematologic toxicity, laboratory abnormalities: Na+ hypo, Grade 3 [3, 4]: 0
- Nonhematologic toxicity, laboratory abnormalities: Na+ hypo, Grade 4 [3, 4]: 5.3
- Hematologic toxicity (worst per patient): Hemoglobin, Grade 1 [3, 5]: 57.9
- Hematologic toxicity (worst per patient): Hemoglobin, Grade 2 [3, 5]: 21.1
- Hematologic toxicity (worst per patient): Hemoglobin, Grade 3 [3, 5]: 0
- Hematologic toxicity (worst per patient): Hemoglobin, Grade 4 [3, 5]: 0
- Hematologic toxicity (worst per patient): Leukocytes, Grade 1 [3, 5]: 15.8
- Hematologic toxicity (worst per patient): Leukocytes, Grade 2 [3, 5]: 5.3
- Hematologic toxicity (worst per patient): Leukocytes, Grade 3 [3, 5]: 0
- Hematologic toxicity (worst per patient): Leukocytes, Grade 4 [3, 5]: 0
- Hematologic toxicity (worst per patient): Neutrophils, Grade 1 [3, 5]: 5.3
- Hematologic toxicity (worst per patient): Neutrophils, Grade 2 [3, 5]: 5.3
- Hematologic toxicity (worst per patient): Neutrophils, Grade 3 [3, 5]: 0
- Hematologic toxicity (worst per patient): Neutrophils, Grade 4 [3, 5]: 0
- Hematologic toxicity (worst per patient): Platelets, Grade 1 [3, 5]: 10.5
- Hematologic toxicity (worst per patient): Platelets, Grade 2 [3, 5]: 0
- Hematologic toxicity (worst per patient): Platelets, Grade 3 [3, 5]: 0
- Hematologic toxicity (worst per patient): Platelets, Grade 4 [3, 5]: 0
- Most frequently reported non-hematologic toxicities: Diarrhea, Grade 1 [3, 6]: 0
- Most frequently reported non-hematologic toxicities: Diarrhea, Grade 2 [3, 6]: 5.3
- Most frequently reported non-hematologic toxicities: Diarrhea, Grade 3 [3, 6]: 5.3
- Most frequently reported non-hematologic toxicities: Diarrhea, Grade 4 [3, 6]: 0
- Most frequently reported non-hematologic toxicities: Fatigue, Grade 1 [3, 6]: 21.1
- Most frequently reported non-hematologic toxicities: Fatigue, Grade 2 [3, 6]: 21.1
- Most frequently reported non-hematologic toxicities: Fatigue, Grade 3 [3, 6]: 0
- Most frequently reported non-hematologic toxicities: Fatigue, Grade 4 [3, 6]: 0
- Most frequently reported non-hematologic toxicities: Hypersensitivity, Grade 1 [3, 6]: 15.8
- Most frequently reported non-hematologic toxicities: Hypersensitivity, Grade 2 [3, 6]: 5.3
- Most frequently reported non-hematologic toxicities: Hypersensitivity, Grade 3 [3, 6]: 5.3
- Most frequently reported non-hematologic toxicities: Hypersensitivity, Grade 4 [3, 6]: 0
- Most frequently reported non-hematologic toxicities: Hypertension, Grade 1 [3, 6]: 0
- Most frequently reported non-hematologic toxicities: Hypertension, Grade 2 [3, 6]: 0
- Most frequently reported non-hematologic toxicities: Hypertension, Grade 3 [3, 6]: 0
- Most frequently reported non-hematologic toxicities: Hypertension, Grade 4 [3, 6]: 0
- Most frequently reported non-hematologic toxicities: Inject-site reaction, Grade 1 [3, 6]: 0
- Most frequently reported non-hematologic toxicities: Inject-site reaction, Grade 2 [3, 6]: 5.3
- Most frequently reported non-hematologic toxicities: Inject-site reaction, Grade 3 [3, 6]: 0
- Most frequently reported non-hematologic toxicities: Inject-site reaction, Grade 4 [3, 6]: 0
- Most frequently reported non-hematologic toxicities: Nausea, Grade 1 [3, 6]: 31.6
- Most frequently reported non-hematologic toxicities: Nausea, Grade 2 [3, 6]: 10.5
- Most frequently reported non-hematologic toxicities: Nausea, Grade 3 [3, 6]: 0
- Most frequently reported non-hematologic toxicities: Nausea, Grade 4 [3, 6]: 0
- Most frequently reported non-hematologic toxicities: Periph-sens neuro, Grade 1 [3, 6]: 36.8
- Most frequently reported non-hematologic toxicities: Periph-sens neuro, Grade 2 [3, 6]: 0
- Most frequently reported non-hematologic toxicities: Periph-sens neuro, Grade 3 [3, 6]: 5.3
- Most frequently reported non-hematologic toxicities: Periph-sens neuro, Grade 4 [3, 6]: 0
- Most frequently reported non-hematologic toxicities: Vomiting, Grade 1 [3, 6]: 10.5
- Most frequently reported non-hematologic toxicities: Vomiting, Grade 2 [3, 6]: 5.3
- Most frequently reported non-hematologic toxicities: Vomiting, Grade 3 [3, 6]: 0
- Most frequently reported non-hematologic toxicities: Vomiting, Grade 4 [3, 6]: 0
- dose limiting toxicity ([3]; weekly schedule): grade 4 hypertransaminasemia
- time of hypertransaminasemia peak/appearance after the infusion ([3]; weekly schedule): 4 to 5 h
